Data taken from paper PMC11184559, “Identification and Validation of Compounds Targeting Leishmania major Leucyl-Aminopeptidase M17” (ACS Infectious Diseases, 2024).
Read-outs that look alike come from different tables or passages of the source.

Legend:
rHsLAP = target: T1, rHsLAP (Homo sapiens, UniProt P28838); test: RapidFire-MS selectivity study against human LAP; format: biochemical; settings: for IC50: 150 nM rHsLAP, 600 μM LSTVIVR, 1 mM ZnCl2, 180 min
T1 construct: purchased Assay Genie, Ireland
Method: The reaction mixture included 600 μM (1× appKM) LSTVIVR substrate peptide, 1 mM ZnCl2, and the reaction time was 180 min. The inhibitors were tested at concentrations ranging from 0.78 to 100 μM to determine inhibitory activity.

[1] = test system: parental (WT) L. major promastigotes; test: Drug sensitivity assay (resazurin), parental L. major promastigotes; format: cell-based
Method: L. major promastigotes were cultured in HOMEM (Gibco) supplemented with 10% heat inactivated FBS at 28 °C.
(§1) L. major promastigotes were seeded in 96-well plates at 5 × 10^4/mL, exposed to 2-fold serial dilutions of test compounds, and incubated at 28 °C for 72 h. Resazurin was, then, added to each well to a final concentration of 50 μM, and fluorescence was measured after 2–3 h (excitation of 528 nm and emission of 590 nm). The EC50 was calculated by processing the collected data by GRAFIT (version 5.0.4, Erithacus Software) and fitting them to the following two-parameter equation: [drawing 6] 6 where [I] is the inhibitor concentration, and m is the slope. Experiments were performed on at least three independent biological replicates. Data are presented as the weighted mean ± standard deviation.

[2] = test system: LmLAP-overexpressing L. major promastigotes; test: Drug sensitivity assay (resazurin), LmLAP-overexpressing L. major promastigotes; format: cell-based; settings: Leishmania major
Method: The basic L. major cytosolic leucyl aminopeptidase gene (LmjF.23.0950) was synthesized (GeneArt, Invitrogen) and cloned into the overexpression vector pIRT1_SAT by using BglII restriction sites. The pIRT1_SAT_LmLAP construct was sequenced to confirm correct sequence. Mid log phase L. major cells (1 × 10^7 cells) were transfected with 10 μg of heat-sterilized DNA using the Human T-Cell Nucleofector kit and AMAXA Nucleofector electroporator (program V-033). After a 24 h recovery period, nourseothricin was added to cultures to a final concentration of 100 μg/mL.
as §1

rLmLAP = rLmLAP (Leishmania major, UniProt Q7KF27); test: Mode of inhibition studies for rLmLAP (Leu-pNA, Lineweaver-Burk); format: biochemical; settings: for Modality of rLmLAP inhibition: Lineweaver-Burk, 0, 15, 30, 60 μM inhibitor, L-Leu-pNA 0.59-300 μM
Method: The aminopeptidase enzymatic activity was determined by a continuous kinetic method.[26] The reaction was performed in 50 mM sodium phosphate, pH 7.0, in the presence of 13.9 nM rLmLAP (which is within the linear range of the v0 vs. enzyme concentration relationship) and 30 μM (1 appKM; 23) of the chromogenic substrate L-Leu-p-nitroanilide (Leu-pNA; 2 μL, in DMSO). The reaction was carried out at 25 °C in 96-well microplates (200 μL final volume), in a microplate spectrophotometer (FLUOstar OPTIMA, Germany). The increase of the absorbance at 405 nm (due to the release of the pNA chromogen) was recorded every 15 s for 5 min. Only the linear ranges of the typical curves, corresponding to substrate consumptions lower than 5% (v0 conditions) were used to measure the reaction velocity. Slopes with determination coefficients (R^2) < 0.98 were not considered for linear fits.
For the determination of the inhibition mode, inhibitors were used at 0, 15, 30, and 60 μM. For each inhibitor concentration, the substrate Leu-pNA was added at different concentrations (0.59–300 μM). Experimental data were transformed, and the Lineweaver–Burk double reciprocal plots were constructed. The following equation was used: [drawing 3] 3 where appvmax is the apparent maximal rate of the reaction, and [S]0 is the initial substrate concentration.[26] The inhibition type was determined graphically from the lines of the double reciprocal plots.[26]

[3] = test system: LmjF.11.0630 (metallo-peptidase, Clan MF, Family M17); test: Isothermal TPP (iTPP) thermal stabilization, LmjF.11.0630; format: binding, Leishmania major; settings: L. major promastigote lysate, 47 °C, compound at 10× EC50 vs DMSO
Method: (§2) Cell lysates were obtained as detailed above. Isothermal TPP assays were performed as previously described[29] but here lysates were incubated at two temperatures: 28 and 47 °C. The first temperature (28 °C) acts as a control temperature at which the protein levels are not altered by the presence of the test compound. The second temperature (47 °C) is the Leishmania spp. median Tm (melting temperature or temperature 50%) according to our interim data. […] These samples were aliquoted and submitted to a temperature shock at the designated temperature for 3 min, then 3 min at room temperature, and finally 3 min on ice. The soluble part was isolated by ultracentrifugation (100,000g, 20 min, 4 °C).
(§3) All aspects of sample processing, TMT-labeling, fractionation by HPLC into 10 fractions, LC-MS/MS, and protein identification and quantitation were described previously.[28],[68] Proteins with less than three peptides and those with increased stability at 28 °C were disregarded.
(§4) Proteins were identified by searching the MS and MS/MS data for the peptides against L. major strain Friedlin (TriTryp version 61, tritrypdb.org) using MaxQuant (http://maxquant.org/, version 2.1.4.0). All proteomics data sets have been deposited to the ProteomeXchange Consortium via the PRIDE[69] partner repository with the identifier PXD00000. Data were analyzed with Perseus v 1.6.15.[70] The reporter intensities of each protein were extracted and normalized to the control temperature reporter intensity (28 °C), then these normalized values were used to calculate the log2 transformed fold-changes (FC) of […] samples. Proteins stabilized (log2 FC > 1 in both replicates) were selected as putative hits.

[4] = test system: LmjF.33.2570 (metallo-peptidase, Clan MF, Family M17); test: Isothermal TPP (iTPP) thermal stabilization, LmjF.33.2570; format: binding, Leishmania major; settings: L. major promastigote lysate, 47 °C, compound at 10× EC50 vs DMSO
Method: as §2, §3, §4

[5] = test system: LmLAP-overexpressing L. major promastigotes; format: cell-based, Leishmania major; settings: compound at EC50, 72 h, n = 70 cells per condition
Method: L. major promastigotes (WT and LmLAP OE) were grown in supplemented HOMEM media as described above, in T25 flasks. […] L. major WT cells were grown at control conditions. Briefly, cells were fixed directly in culture media with 3% (v/v) paraformaldehyde for 15 min at room temperature, washed three times with excess D-PBS, permeabilized with 0.2% Triton X-100 (v/v) in PBS for 5 min, and washed three times in excess PBS. Slides were mounted with mounting medium with DAPI (Vectashield Lab H-1000–10). Microscopy was carried out on a Zeiss microscope and images captured using software Zen Blue (Zeiss). Analysis of images and figure preparation were made in Omero.[71]

[6] = Leishmania major; value of the specific curve shown in Figure 4; read-out: EC50 (WT), representative curve
[7] = 72 h, read-out: EC50 (weighted mean), LmLAP-overexpressing (LAP-OE) L. major promastigotes
[8] = read-out: EC50 (LAP-OE), representative curve

rLmLAP, sequence (Q7KF27 entry or part of it): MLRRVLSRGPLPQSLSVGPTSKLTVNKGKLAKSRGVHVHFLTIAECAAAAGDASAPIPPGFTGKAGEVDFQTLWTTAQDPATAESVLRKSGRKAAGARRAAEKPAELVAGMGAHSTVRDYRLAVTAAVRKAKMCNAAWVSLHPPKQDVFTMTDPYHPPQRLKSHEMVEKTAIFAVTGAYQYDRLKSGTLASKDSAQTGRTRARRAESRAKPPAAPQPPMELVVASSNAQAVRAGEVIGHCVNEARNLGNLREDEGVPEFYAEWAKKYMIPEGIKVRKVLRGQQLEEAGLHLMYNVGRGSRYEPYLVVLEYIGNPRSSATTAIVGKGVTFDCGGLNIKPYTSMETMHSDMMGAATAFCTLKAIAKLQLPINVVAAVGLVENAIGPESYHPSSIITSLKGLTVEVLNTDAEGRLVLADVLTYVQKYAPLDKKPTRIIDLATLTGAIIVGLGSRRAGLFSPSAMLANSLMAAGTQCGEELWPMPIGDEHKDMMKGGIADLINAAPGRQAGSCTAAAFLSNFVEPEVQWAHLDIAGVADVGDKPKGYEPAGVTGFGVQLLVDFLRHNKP
T1 sequence (P28838 whole entry): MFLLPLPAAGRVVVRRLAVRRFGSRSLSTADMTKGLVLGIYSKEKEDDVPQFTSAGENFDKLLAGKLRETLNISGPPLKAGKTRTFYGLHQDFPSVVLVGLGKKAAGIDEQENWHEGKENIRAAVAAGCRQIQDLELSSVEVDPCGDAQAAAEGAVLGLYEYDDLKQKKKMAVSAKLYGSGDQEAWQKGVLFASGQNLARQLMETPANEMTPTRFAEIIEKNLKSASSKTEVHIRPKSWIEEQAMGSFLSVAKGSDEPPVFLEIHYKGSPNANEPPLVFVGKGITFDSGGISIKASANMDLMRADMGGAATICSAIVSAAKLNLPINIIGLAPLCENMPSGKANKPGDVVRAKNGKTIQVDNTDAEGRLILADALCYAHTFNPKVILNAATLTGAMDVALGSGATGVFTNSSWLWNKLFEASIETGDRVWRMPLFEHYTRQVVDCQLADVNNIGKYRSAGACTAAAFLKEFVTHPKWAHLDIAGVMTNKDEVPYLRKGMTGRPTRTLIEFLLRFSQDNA

| SMILES | inhibition at 100 µM (rHsLAP) [%] | IC50 (rHsLAP) [µM] | EC50 ([1]; Leishmania major, 72 h, resazurin; weighted mean ± SD (n = 5); read-out: EC50 (weighted mean), parental (WT) L. major promastigotes) [µM] | EC50 [1, 6] [µM] | EC50 [2, 7] [µM] | EC50 [2, 8] [µM] | Modality of rLmLAP inhibition (rLmLAP) | α (noncompetitive inhibition mechanism) (rLmLAP; α > 1: preferential binding to free enzyme) | Enrichment (log2) replica A, LmjF.11.0630 [3] [log2] | Enrichment (log2) replica B, LmjF.11.0630 [3] [log2] | Enrichment (log2) replica A, LmjF.33.2570 [4] [log2] | Enrichment (log2) replica B, LmjF.33.2570 [4] [log2] | Frequency of elongated 1K1N1F forms in LmLAP-overexpressing cells [5] [%] | EC50 ([1]; Leishmania major; 72 h, resazurin; weighted mean ± SD (n = 5); read-out: EC50 (weighted mean), parental (WT) L. major promastigotes) [µM] |
| --- | --- | --- | --- | --- | --- | --- | --- | --- | --- | --- | --- | --- | --- | --- |
| COc1ccc(Cc2c(N)nc(-c3ccccn3)nc2N)cc1 [DDD00057570] | 35 | > 100 | 1.8 ± 0.2 | 1.1 ± 0.2 | 7 ± 1 | 6.9 ± 1 | noncompetitive inhibitor | > 1 | 1.47 | 1.34 | 1.38 | 1.17 | ~36 | – |
| O=C(c1cccs1)N(CCCn1ccnc1)c1nc2ccccc2s1 [DDD00097924] | 62 | 98 | – | 1.83 ± 0.2 | 11 ± 1 | 7.3 ± 1.4 | competitive mode inhibition | – | 2.19 | 1.99 | 1.97 | 1.76 | ~36 | 3 ± 0.2 |
